The record followed here is patent publication US12435046B2, “Alkynyl quinazoline compounds” (Black Diamond Therapeutics, Inc., priority 2019, dated 2025).

Bounds are passed on as bounds.

Holding throughout (format): cell-based
What all share (settings): Table A; BaF3 cells, 3 days

For test [1], the target named is T1, EGFR wt (Homo sapiens, UniProt P00533).
T1 construct: expressed in transfected cells; host or cells: BaF3 (murine pro-B) cells, retroviral transduction with pMXs-IRES-Blasticidin
T1 sequence (P00533 25-1210): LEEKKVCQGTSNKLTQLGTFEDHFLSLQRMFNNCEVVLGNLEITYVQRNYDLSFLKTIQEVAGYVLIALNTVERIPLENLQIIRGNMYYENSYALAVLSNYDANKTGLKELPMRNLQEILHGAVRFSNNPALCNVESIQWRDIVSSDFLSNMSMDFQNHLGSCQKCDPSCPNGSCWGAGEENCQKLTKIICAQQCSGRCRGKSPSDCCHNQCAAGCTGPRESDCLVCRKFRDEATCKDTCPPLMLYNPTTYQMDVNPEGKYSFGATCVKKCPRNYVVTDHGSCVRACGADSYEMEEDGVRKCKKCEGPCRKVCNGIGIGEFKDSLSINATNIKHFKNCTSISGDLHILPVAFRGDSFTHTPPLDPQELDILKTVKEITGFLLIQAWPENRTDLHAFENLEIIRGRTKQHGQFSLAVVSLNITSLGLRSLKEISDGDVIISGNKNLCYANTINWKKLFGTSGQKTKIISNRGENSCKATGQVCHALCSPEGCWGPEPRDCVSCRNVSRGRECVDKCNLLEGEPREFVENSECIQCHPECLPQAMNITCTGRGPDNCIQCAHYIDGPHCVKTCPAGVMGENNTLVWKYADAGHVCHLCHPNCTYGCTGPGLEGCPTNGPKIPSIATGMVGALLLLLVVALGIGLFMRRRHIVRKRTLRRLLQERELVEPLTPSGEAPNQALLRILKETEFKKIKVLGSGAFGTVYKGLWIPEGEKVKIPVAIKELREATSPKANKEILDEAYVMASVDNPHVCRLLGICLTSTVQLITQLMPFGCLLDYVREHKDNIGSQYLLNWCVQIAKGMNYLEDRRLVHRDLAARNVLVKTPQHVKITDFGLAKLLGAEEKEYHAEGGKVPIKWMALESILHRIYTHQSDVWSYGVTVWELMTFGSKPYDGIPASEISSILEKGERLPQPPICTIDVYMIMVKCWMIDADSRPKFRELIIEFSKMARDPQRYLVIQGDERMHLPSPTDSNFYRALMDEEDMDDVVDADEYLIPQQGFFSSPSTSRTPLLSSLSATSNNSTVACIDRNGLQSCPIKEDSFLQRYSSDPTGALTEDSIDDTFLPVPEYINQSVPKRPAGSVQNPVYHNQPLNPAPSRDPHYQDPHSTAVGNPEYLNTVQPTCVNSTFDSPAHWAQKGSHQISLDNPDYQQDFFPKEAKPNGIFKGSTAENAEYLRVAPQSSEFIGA
Nature of the test: BaF3 cell proliferation assay (CellTiterGlo), EGFR wt. On the procedure: (§1) Retroviral Production: EGFR mutants were subcloned into pMXs-IRES-Blasticidin (RTV-016, Cell Biolabs, San Diego, CA). Retroviral expression vector retrovirus was produced by transient transfection of HEK 293T cells with the retroviral EGFR mutant expression vector pMXs-IRES-Blasticidin (RTV-016, Cell Biolabs), pCMV-Gag-Pol vector and pCMV-VSV-G-Envelope vector. Briefly, HEK 293T/17 cells were plated in 100 mm collagen coated plate (354450, Corning Life Sciences, Tewksbury, MA) (4×10^5 per plate) and incubated overnight. The next day, retroviral plasmids (3 ng of EGFR mutant, 1.0 ng of pCMV-Gag-Pol and 0.5 ng pCMV-VSV-G) were mixed in 500 n1 of Optimem (31985, Life Technologies). The mixture was incubated at room temperature for 5 min and then added to Optimem containing transfection reagent Lipofectamine (11668, Invitrogen) and incubated for 20 minutes. Mixture was then added dropwise to HEK 293T cells. The next day the medium was replaced with fresh culture medium and retrovirus was harvested @ 24 and 48 hrs.
(§2) Generation of EGFR mutant stable cell lines: BaF3 cells (1.5E5 cells) were infected with 1 ml of viral supernatant supplemented with 8 ng/ml polybrene by centrifuging for 30 min at 1000 rpm. Cells were placed in a 37° C. incubator overnight. Cells were then spun for 5 minutes to pellet the cells. Supernatant was removed and cells re-infected a fresh 1 ml of viral supernatant supplemented with 8 ng/ml polybrene by centrifuging for 30 min at 1000 rpm. Cells were placed in 37° C. incubator overnight. Cells were then maintained in RPMI containing 10% Heat Inactivated FBS, 2% L-glutamine containing 10 ng/ml IL-3. After 48 hours cells were selected for retroviral infection in 10 […] for one week. Blasticidin resistant populations were washed twice in phosphate buffered saline before plating in media lacking IL-3 to select for IL-3 independent growth.
(§3) Assay for cell proliferation: BaF3 cell lines were resuspended at 1.3E5 c/ml in RPMI containing 10% Heat Inactivated FBS, 2% L-glutamine and 1% Pen/Strep and dispensed in triplicate (17.5E4 c/well) into 96 well plates. To determine the effect of drug on cell proliferation, cells incubated for 3 days in the presence of vehicle control or test drug at varying concentrations. Inhibition of cell growth was determined by luminescent quantification of intracellular ATP content using CellTiterGlo (Promega), according to the protocol provided by the manufacturer. Comparison of cell number on day 0 versus 72 hours post drug treatment was used to plot dose-response curves. The number of viable cells was determined and normalized to vehicle-treated controls. Inhibition of proliferation, relative to vehicle-treated controls was expressed as a fraction of 1 and graphed using PRISM® software (Graphpad Software, San Diego, CA). EC50 values were determined with the same application.

The target in test [2] is T2, EGFR V3 (Homo sapiens, UniProt P00533, DELINS30-297G).
T2 construct: expressed in transfected cells; host or cells: BaF3 (murine pro-B) cells, retroviral transduction with pMXs-IRES-Blasticidin
T2 sequence (P00533 with tags, fused parts or gaps DELINS30-297G): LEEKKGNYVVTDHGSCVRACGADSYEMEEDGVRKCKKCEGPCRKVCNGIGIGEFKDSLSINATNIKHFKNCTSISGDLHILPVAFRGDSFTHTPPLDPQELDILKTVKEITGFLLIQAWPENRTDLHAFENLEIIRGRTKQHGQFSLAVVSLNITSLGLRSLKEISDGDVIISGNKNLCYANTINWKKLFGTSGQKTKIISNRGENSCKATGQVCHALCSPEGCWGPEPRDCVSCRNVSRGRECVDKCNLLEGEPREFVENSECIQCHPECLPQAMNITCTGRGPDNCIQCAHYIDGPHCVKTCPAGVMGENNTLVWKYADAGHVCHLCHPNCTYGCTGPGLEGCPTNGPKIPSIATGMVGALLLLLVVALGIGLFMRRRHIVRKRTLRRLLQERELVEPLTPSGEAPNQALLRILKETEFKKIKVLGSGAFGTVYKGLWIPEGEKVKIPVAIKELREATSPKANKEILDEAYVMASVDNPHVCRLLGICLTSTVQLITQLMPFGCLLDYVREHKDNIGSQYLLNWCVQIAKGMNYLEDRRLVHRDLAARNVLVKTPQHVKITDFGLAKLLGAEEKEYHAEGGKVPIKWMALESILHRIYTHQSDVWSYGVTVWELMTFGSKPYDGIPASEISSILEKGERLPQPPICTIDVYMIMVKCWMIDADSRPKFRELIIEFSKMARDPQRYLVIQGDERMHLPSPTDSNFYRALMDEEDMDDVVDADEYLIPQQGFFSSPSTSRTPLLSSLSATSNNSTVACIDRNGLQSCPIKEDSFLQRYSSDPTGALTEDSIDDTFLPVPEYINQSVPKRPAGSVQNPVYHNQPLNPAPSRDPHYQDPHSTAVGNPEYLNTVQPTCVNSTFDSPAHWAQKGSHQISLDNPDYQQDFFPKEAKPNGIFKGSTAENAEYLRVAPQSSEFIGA
Nature of the test: BaF3 cell proliferation assay (CellTiterGlo), EGFR V3. On the procedure:
as §1, §2, §3

Test [3] has as its target T3, HER2 S310F (Homo sapiens, UniProt P04626, S310F).
T3 construct: expressed in transfected cells; host or cells: BaF3 (murine pro-B) cells
Nature of the test: BaF3 cell proliferation assay (CellTiterGlo), HER2 S310F.

Test [4] concerns the target T4, HER2 YVMA (Homo sapiens, UniProt P04626, INS775YVMA).
T4 construct: expressed in transfected cells; host or cells: BaF3 (murine pro-B) cells
Nature of the test: BaF3 cell proliferation assay (CellTiterGlo), HER2 YVMA.

T3 sequence (P04626 23-1255 S310F): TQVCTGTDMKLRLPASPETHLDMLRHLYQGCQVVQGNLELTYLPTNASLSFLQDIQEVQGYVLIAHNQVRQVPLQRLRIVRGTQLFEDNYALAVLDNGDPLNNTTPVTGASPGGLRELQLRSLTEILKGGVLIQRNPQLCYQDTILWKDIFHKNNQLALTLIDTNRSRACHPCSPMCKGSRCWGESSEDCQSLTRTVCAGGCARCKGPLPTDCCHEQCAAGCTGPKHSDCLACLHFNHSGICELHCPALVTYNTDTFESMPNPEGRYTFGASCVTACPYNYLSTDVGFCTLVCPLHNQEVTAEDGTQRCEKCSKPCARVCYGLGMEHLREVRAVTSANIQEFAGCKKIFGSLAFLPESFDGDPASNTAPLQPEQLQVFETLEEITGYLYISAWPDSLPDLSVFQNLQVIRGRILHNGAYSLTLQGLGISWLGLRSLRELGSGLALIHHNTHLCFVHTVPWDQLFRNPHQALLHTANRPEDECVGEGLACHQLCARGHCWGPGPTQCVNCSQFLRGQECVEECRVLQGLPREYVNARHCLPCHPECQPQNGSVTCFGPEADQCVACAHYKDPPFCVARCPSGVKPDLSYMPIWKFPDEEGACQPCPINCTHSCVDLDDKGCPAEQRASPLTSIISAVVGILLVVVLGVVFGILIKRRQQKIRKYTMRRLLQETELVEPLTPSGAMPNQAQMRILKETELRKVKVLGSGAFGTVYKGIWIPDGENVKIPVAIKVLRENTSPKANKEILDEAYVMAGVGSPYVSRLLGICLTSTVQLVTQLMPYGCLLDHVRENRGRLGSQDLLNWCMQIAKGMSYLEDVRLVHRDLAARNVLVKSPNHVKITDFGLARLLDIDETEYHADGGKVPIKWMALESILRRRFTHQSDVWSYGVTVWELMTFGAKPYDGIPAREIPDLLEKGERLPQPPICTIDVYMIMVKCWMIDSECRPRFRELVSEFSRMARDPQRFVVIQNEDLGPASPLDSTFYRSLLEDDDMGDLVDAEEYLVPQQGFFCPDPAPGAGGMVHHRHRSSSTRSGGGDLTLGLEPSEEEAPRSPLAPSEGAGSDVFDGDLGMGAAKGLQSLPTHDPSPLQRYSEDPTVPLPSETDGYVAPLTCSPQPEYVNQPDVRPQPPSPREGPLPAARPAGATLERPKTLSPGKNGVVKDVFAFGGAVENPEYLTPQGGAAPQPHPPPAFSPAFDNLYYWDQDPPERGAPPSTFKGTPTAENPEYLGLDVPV
T4 sequence (P04626 with tags, fused parts or gaps INS775YVMA): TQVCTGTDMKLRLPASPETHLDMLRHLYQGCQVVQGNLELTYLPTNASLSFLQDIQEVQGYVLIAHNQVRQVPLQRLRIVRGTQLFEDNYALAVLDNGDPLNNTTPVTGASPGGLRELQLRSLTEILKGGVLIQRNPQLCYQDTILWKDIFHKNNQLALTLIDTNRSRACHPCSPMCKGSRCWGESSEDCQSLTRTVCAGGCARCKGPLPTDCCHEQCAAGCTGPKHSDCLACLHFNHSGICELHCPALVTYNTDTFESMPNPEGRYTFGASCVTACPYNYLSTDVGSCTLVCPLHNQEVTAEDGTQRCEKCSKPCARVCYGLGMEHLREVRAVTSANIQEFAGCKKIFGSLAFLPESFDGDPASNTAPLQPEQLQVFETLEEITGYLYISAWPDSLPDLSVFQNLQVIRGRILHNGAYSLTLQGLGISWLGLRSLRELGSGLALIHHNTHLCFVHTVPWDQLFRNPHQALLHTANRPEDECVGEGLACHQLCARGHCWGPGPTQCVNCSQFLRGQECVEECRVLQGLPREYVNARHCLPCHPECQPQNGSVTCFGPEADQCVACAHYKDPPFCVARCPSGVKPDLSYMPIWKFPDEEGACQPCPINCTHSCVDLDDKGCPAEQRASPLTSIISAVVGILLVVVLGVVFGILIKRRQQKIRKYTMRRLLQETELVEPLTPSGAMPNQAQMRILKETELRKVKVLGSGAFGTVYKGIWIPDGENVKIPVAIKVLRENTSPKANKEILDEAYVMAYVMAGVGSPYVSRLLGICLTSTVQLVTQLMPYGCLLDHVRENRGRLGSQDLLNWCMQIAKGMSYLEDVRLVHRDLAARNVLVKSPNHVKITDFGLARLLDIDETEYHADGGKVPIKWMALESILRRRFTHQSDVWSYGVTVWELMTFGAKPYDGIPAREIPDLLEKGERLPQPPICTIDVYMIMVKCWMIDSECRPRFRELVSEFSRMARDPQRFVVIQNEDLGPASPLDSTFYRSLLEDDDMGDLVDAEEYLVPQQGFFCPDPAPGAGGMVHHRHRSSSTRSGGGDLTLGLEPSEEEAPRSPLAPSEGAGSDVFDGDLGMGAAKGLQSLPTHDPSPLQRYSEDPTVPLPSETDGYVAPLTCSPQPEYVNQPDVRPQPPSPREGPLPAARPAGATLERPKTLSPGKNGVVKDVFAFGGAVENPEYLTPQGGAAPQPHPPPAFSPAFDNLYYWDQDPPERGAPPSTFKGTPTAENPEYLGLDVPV

Take `C=C(C)C(=O)Nc1cc2c(Nc3cccc(Cl)c3F)ncnc2cc1C#C[C@@]1(C)CCN(C)C1` [Compound 25, (R)—N-(4-((3-chloro-2-fluorophenyl)amino)-7-((1,3-dimethylpyrrolidin-3-yl)ethynyl)quinazolin-6-yl)methacrylamide]: the IC50 in test [1] was 100 to 500 nM; in test [2], over 500 nM; in test [3], over 500 nM; in test [4], over 500 nM.
For the molecule `C=C(CO)C(=O)Nc1cc2c(Nc3cccc(Cl)c3F)ncnc2cc1C#C[C@@]12C[C@@H]1CN(C)C2` [Compound 26, N-[4-(3-chloro-2-fluoro-anilino)-7-[2-[(1R,5S)-3-methyl-3-azabicyclo[3.1.0]hexan-1-yl]ethynyl]quinazolin-6-yl]-2-(hydroxymethyl)prop-2-enamide], the IC50 in test [1] is 50 to 100 nM; in test [2], at most 50 nM; in test [3] it was 50 to 100 nM; in test [4], 100 to 500 nM.
As for `C=CC(=O)Nc1cc2c(Nc3cccc(Cl)c3F)ncnc2cc1C#C[C@@]1(F)CCN(C)C1` [Compound 45, N-{4-[(3-chloro-2-fluorophenyl)amino]-7-{2-[(3S)-3-fluoro-1-methylpyrrolidin-3-yl]ethynyl}quinazolin-6-yl}prop-2-enamide], the half-inhibitory concentration (IC50) in test [1] was 100 to 500 nM; in test [2] it was at most 50 nM; in test [3], 100 to 500 nM; in test [4], over 500 nM.
With `C=CC(=O)Nc1cc2c(Nc3cccc(Cl)c3F)ncnc2cc1C#C[C@]1(F)CCN(C)C1` [Compound 46, N-{4-[(3-chloro-2-fluorophenyl)amino]-7-{2-[(3R)-3-fluoro-1-methyl-pyrrolidin-3-yl]ethynyl}quinazolin-6-yl}prop-2-enamide], the IC50 was 100 to 500 nM in test [1], at most 50 nM in test [2], 100 to 500 nM in test [3] and over 500 nM in test [4].
In the case of `C=CC(=O)Nc1cc2c(Nc3cccc(Cl)c3F)ncnc2cc1C#CC1(C)CN(C)C2(COC2)C1` (stereo not shown) [Compound 47, N-(4-((3-chloro-2-fluorophenyl)amino)-7-((5,7-dimethyl-2-oxa-5-azaspiro[3.4]octan-7-yl)ethynyl)quinazolin-6-yl)acrylamide], the IC50 in test [1] is over 500 nM; in test [2], 100 to 500 nM; in test [3], over 500 nM; in test [4], over 500 nM.
With `C=CC(=O)Nc1cc2c(Nc3cccc(Cl)c3F)ncnc2cc1C#C[C@]12C[C@H]1CN(C1COC1)C2` [Compound 48, N-(4-((3-chloro-2-fluorophenyl)amino)-7-(((1S,5R)-3-(oxetan-3-yl)-3-azabicyclo[3.1.0]hexan-1-yl)ethynyl)quinazolin-6-yl)acrylamide], the IC50 in test [1] was 100 to 500 nM; in test [2], 100 to 500 nM; in test [3], 100 to 500 nM; in test [4] it was over 500 nM.
With `C=CC(=O)Nc1cc2c(Nc3cccc(Cl)c3F)ncnc2cc1C#C[C@]12C[C@H]1CN(C)C2` [Compound 49, N-(4-((3-chloro-2-fluorophenyl)amino)-7-(((1S,5R)-3-methyl-3-azabicyclo[3.1.0]hexan-1-yl)ethynyl)quinazolin-6-yl)acrylamide], the IC50 in test [1] is 50 to 100 nM; in test [2], at most 50 nM; in test [3], 50 to 100 nM; in test [4] it was 100 to 500 nM.
On to `C=CC(=O)Nc1cc2c(Nc3cccc(Cl)c3F)ncnc2cc1C#C[C@@]12C[C@@H]1CN(C1COC1)C2` [Compound 50, N-(4-((3-chloro-2-fluorophenyl)amino)-7-(((1R,5S)-3-(oxetan-3-yl)-3-azabicyclo[3.1.0]hexan-1-yl)ethynyl)quinazolin-6-yl)acrylamide], for which the IC50 is 50 to 100 nM in test [1], at most 50 nM in test [2], 50 to 100 nM in test [3] and 100 to 500 nM in test [4].
As for `C=CC(=O)Nc1cc2c(Nc3cccc(Cl)c3F)ncnc2cc1C#C[C@@]12C[C@@H]1CN(C)C2` [Compound 51, N-(4-((3-chloro-2-fluorophenyl)amino)-7-(((1R,5S)-3-methyl-3-azabicyclo[3.1.0]hexan-1-yl)ethynyl)quinazolin-6-yl)acrylamide], the IC50 in test [1] was 50 to 100 nM; in test [2], at most 50 nM; in test [3], at most 50 nM; in test [4], 100 to 500 nM.
With `C=CC(=O)Nc1cc2c(Nc3cccc(Cl)c3F)ncnc2cc1C#CC1(OC)CCN(C)C1` (stereo not shown) [Compound 52, N-(4-((3-chloro-2-fluorophenyl)amino)-7-((3-methoxy-1-methylpyrrolidin-3-yl)ethynyl)quinazolin-6-yl)acrylamide], the IC50 in test [1] is 100 to 500 nM; in test [2], at most 50 nM; in test [3] it was 50 to 100 nM; in test [4] it was 100 to 500 nM.
As for `C=CC(=O)Nc1cc2c(Nc3cccc(Cl)c3F)ncnc2cc1C#C[C@]1(C)CCCN(C)C1` [Compound 53, (S)—N-(4-((3-chloro-2-fluorophenyl)amino)-7-((1,3-dimethylpiperidin-3-yl)ethynyl)quinazolin-6-yl)acrylamide], the IC50 in test [1] is 100 to 500 nM; in test [2] it was 100 to 500 nM; in test [3], 100 to 500 nM; in test [4], over 500 nM.
Regarding `C=CC(=O)Nc1cc2c(Nc3cccc(Cl)c3F)ncnc2cc1C#C[C@@]1(C)CCCN(C)C1` [Compound 54, (R)—N-(4-((3-chloro-2-fluorophenyl)amino)-7-((1,3-dimethylpiperidin-3-yl)ethynyl)quinazolin-6-yl)acrylamide], the IC50 in test [1] is over 500 nM; in test [2] it was 50 to 100 nM; in test [3], 100 to 500 nM; in test [4] it was over 500 nM.
As to `C=CC(=O)Nc1cc2c(Nc3cccc(Cl)c3F)ncnc2cc1C#CC1(C)CN(C)CC1(F)F` (stereo not shown) [Compound 55, N-(4-((3-chloro-2-fluorophenyl)amino)-7-((4,4-difluoro-1,3-dimethylpyrrolidin-3-yl)ethynyl)quinazolin-6-yl)acrylamide], the IC50 in test [1] is over 500 nM; in test [2], 100 to 500 nM; in test [3], 100 to 500 nM; in test [4], over 500 nM.
On to `C=CC(=O)Nc1cc2c(Nc3cccc(Cl)c3F)ncnc2cc1C#CC1(C)CCN(CCF)C1` (stereo not shown) [Compound 56, N-(4-((3-chloro-2-fluorophenyl)amino)-7-((1-(2-fluoroethyl)-3-methylpyrrolidin-3-yl)ethynyl)quinazolin-6-yl)acrylamide], for which the IC50 in test [1] was 100 to 500 nM; in test [2], at most 50 nM; in test [3] it was 100 to 500 nM; in test [4] it was over 500 nM.
On to `CNC(=O)Nc1cc2c(Nc3cccc(Cl)c3F)ncnc2cc1C#CC1(C)CCN(C)C1` (stereo not shown) [Compound 57, 1-(4-((3-chloro-2-fluorophenyl)amino)-7-((1,3-dimethylpyrrolidin-3-yl)ethynyl)quinazolin-6-yl)-3-methylurea], for which the IC50 in test [1] is at most 50 nM; in test [2] it was over 500 nM; in test [3], over 500 nM; in test [4], over 500 nM.
On to `C=CC(=O)Nc1cc2c(Nc3cccc(Cl)c3F)ncnc2cc1C#C[C@]1(C)CCN(C2COC2)C1` [Compound 58, (S)—N-(4-((3-chloro-2-fluorophenyl)amino)-7-((3-methyl-1-(oxetan-3-yl)pyrrolidin-3-yl)ethynyl)quinazolin-6-yl)acrylamide], for which the IC50 in test [1] is 100 to 500 nM; in test [2], at most 50 nM; in test [3] it was 50 to 100 nM; in test [4], over 500 nM.
